{
  "source": "patent US20250249025A1",
  "about": "“DRUG DELIVERY CARRIER UTILIZING PROPERTY OF D-ALLOSE BEING UPTAKEN BY CANCER CELL, DRUG DELIVERY METHOD, AND COMPOSITION FOR TREATING RENAL CELL CARCINOMA” (NATIONAL UNIVERSITY CORPORATION KAGAWA UNIVERSITY, priority 2019, published 2025)",
  "key": {"ACHN tumor": {"test_system": "ACHN tumor", "test": "D-allose concentration in tumor after intraperitoneal injection, ACHN xenograft mouse model", "assay_type": "in vivo", "conditions": "ACHN xenograft mice, 400 mg/kg intraperitoneal", "description": "The experiment of the present example used two human renal cell carcinoma cell lines (Caki-I and ACHN). Each cell was cultured under the wet environment of 37° C. and 5% CO2 by using a RPMI-1640 culture solution (2000 mg D-glucose/L) containing a 10% fetal calf serum, a HEPES buffer, and penicillin-streptomycin.\nWith respect to a renal cell carcinoma xenograft mouse model, a 1.0×10^5 cells/ml of a cell suspension was obtained by adjusting the cultured cells with a MEM culture solution and then 0.1 ml of the resulting suspension was injected into the femoral subcutaneous tissue of Female athymic nude mice (BALB/c-nu/nu, 6-week-old). After checking that the tumor volume was 200 mm^3 or more one week after the injection, the mice were provided for the experiment thereafter.\nA 400 mg/kg/0.4 mL solution of rare sugar D-allose was prepared using physiological saline and was intraperitoneally injected into the xenograft mouse models of two human renal cell carcinoma cell lines (Caki-I and ACHN) through a 27 G needle. A tumor was enucleated from the mouse before […] administration and 1 hour, 2 hours, and 4 hours after the administration. […] A monosaccharide in the supernatant thus obtained was labeled with ABEE (4-aminobenzoic acid ethyl ester) and the quantitative analysis of D-allose was performed by HPLC (high performance liquid chromatography). […]"}, "[1]": {"test_system": "human prostate carcinoma cell line Du145", "test": "Rare sugar uptake experiment, sugar content in disrupted cell suspension of Du145", "assay_type": "cell-based", "description": "(§1) An uptake amount of a rare sugar, which had been added to a medium, into carcinoma cells was analyzed using the cell lines of three types of cancers. As the rare sugar, four kinds, that is, D-allose, D-allulose (D-psicose), L-allulose (L-psicose), and allitol were used, while D-glucose and fructose were used as a monosaccharide which was not a rare sugar.\n(§2) Cells of each of the cell lines were cultured in RPMI-1640 media and during culturing, six sugars were each added to the resulting media and cultured. After culturing, an amount of each sugar taken up into the cells was analyzed. The medium to which no sugar was added during culturing was used as a control.\n(§3) Used were human bladder carcinoma cell lines (RT112, 253), and J82), human prostatic carcinoma cell lines (LNCa, Du145, and PC-3), and human renal cell carcinoma cell lines (ACHN, Caki-I, and Caki-II).\n(§4) After cells were cultured in RPMI-1640 (2000 mg D-glucose/L) media, the above monosaccharides and rare sugars were added to the resulting media, respectively. Described specifically, they were following seven combinations: RPMI-1640 alone (control), RPMI-1640+D-glucose, RPMI-1640+L-allulose, RPMI-1640+D-allulose, RPMI-1640+D-fructose, RPMI-1640+D-allose, and RPMI-1640+D-allitol. The final concentration of the sugar in the medium was adjusted to 10 mM and no sugar was added in the control.\n(§5) Five-ml portions of a 3.0×10^4 cells/ml cell suspension prepared using RPMI-1640 were seeded in dishes having a diameter of 6 cm (1.5×10^5 cells/dish) and cultured for 24 hours in the RPMI-1640 medium containing 2000 mg/l of D-glucose as a nutrient source. Twenty-four hours later, the media were changed to the culture solutions containing the monosaccharides and rare sugars described above in 2), respectively, followed by culturing for 48 hours.\n(§6) After culturing for 48 hours, the attached human carcinoma cells were mechanically separated and collected in a Spitz tube together with the culture solution and floating cells. After the supernatant formed by centrifugation (4° C., 1200 rpm, and 5 minutes) was removed to obtain cell pellets alone, 5 ml of a phosphate buffer physiological saline (PBS) was added for the purpose of washing to obtain a cell suspension of the cell pellets. A gain, the resulting cell suspension was centrifuged at 4° C. and 1200 rpm for 5 minutes and the supernatant was removed. To the cell pellets after washing was added 1 ml of pure water to suspend them therein. Ultrasonic disruption (intensity: 40%, 30 seconds) was then performed and the monosaccharide in the disrupted cell suspension was labeled with ABEE, followed by analysis by HPLC. From the area thus obtained, the sugar content in the cells was determined using a calibration curve. With respect to the ketose, two peaks were found after labeling with ABEE so that the sugar content in the cells was determined from the calibration curves of both peaks."}, "[2]": {"test_system": "human bladder carcinoma cell line J82", "test": "Rare sugar uptake experiment, sugar content in disrupted cell suspension of J82", "assay_type": "cell-based", "description": "as §1, §2, §3, §4, §5, §6"}},
  "data": [
    {"compound": "O=C[C@H](O)[C@H](O)[C@H](O)[C@H](O)CO", "note": "[D-allose]", "values": [
      {"measurement": "D-allose in tumor one hour after intraperitoneal injection", "setting": "ACHN tumor; HPLC, FIG. 4", "result": "detected"},
      {"measurement": "Time after injection at which D-allose concentration in tumor became the highest", "setting": "ACHN tumor; sampled 1, 2, 4 hours", "result": "two"},
      {"measurement": "D-glucose content in cell", "setting": "[1]; Du145, named sugar added to RPMI-1640 at 10 mM, 48 hours, HPLC after ABEE labeling", "result": 16.2, "unit": "µg"},
      {"measurement": "Content in cell of the added sugar", "setting": "[1]; human, 48 h, 10 mM", "result": 0.0, "unit": "µg"},
      {"measurement": "D-glucose content in cell", "setting": "[2]; J82, named sugar added to RPMI-1640 at 10 mM, 48 hours, HPLC after ABEE labeling", "result": 11.2, "unit": "µg"},
      {"measurement": "Content in cell of the added sugar", "setting": "[2]; human, 48 h, 10 mM", "result": 0.0, "unit": "µg"}
    ]}
  ]
}
